Test results reported in article PMC12254266, “Multicolored sequential resonance energy transfer for detection of simultaneous ligand binding at G protein-coupled receptors” (Nature Communications, 2025).
Several values for one entry are separate records, joined by “and”; a condition that tells them apart may be missing. Identical values can stand only once.

Legend:
[1] = target: T1, Nluc-FFA1 (Homo sapiens, UniProt O14842); assay: NanoBRET binding (saturation, competition, kinetics) at N terminal Nluc tagged FFA1; conditions: technical duplicates; for Specific BRET (690/450)%: Figure 4Ci; for Specific BRET (540/450)%: Figure 4Cii
T1 construct: expressed in transfected cells
Protocol: Nluc-FFA1 or FFA1-Nluc Flp-In T-REx 293 cells were plated at 50,000 cells per well in poly-D-lysine coated white 96-well plates. Cells were cultured for 24 h in the plate before medium was replaced with medium containing 100 ng/mL of doxycycline to induce receptor expression. After culturing for a further 24 h, medium was removed, cells were washed with HBSS and incubated in HBSS for 30 min. To start the assay, NanoGlo substrate (Promega, N1110) was added to the cells at a 1:800 final dilution and incubated for 10 min at 37 °C. For endpoint assays, including both saturation and competition binding, test ligands were then added, including both fluorescent and unlabelled competing ligands as indicated, and plates incubated for a further 5 min at 37 °C. NanoBRET was then quantified in a CLARIOstar microplate reader (BMG Labtech) by measuring luminescent emission with the monochrometer set for the Nluc donor at 450–60 nm, and acceptor luminescent emission 540–60 nm (NBD), 600–80 nm (Cy3.5) or 690–100 nm (SulfoCy5), depending on which fluorophore was being tested. The acceptor/donor BRET ratio was then taken as a measure of fluorophore binding. For kinetic on then off NanoBRET experiments plates were washed the same way and substrate was added to the same concentration. However, 10 min after substrate was added plates were inserted into the CLARIOstar microplate reader set to 25 °C to take repeated measurements of luminescent emission for both the donor and the acceptor fluorophore being used. After 5 min of background measurements, the indicated concentration of fluorescent ligand was added using the plate reader injector and luminescent emission was monitored for ~10 min before the reader was paused to manually add a high concentration of appropriate competing ligand to initiate dissociation. The plate was returned to the reader and luminescence measurements were continued for a further 30 min to monitor dissociation of the fluorescent ligand. For kinetic experiments using multiple concentrations of fluorescent ligand, cells were placed in the plate reader immediately after the addition of Nano-Glo substrate and luminescent measurements were taken. After 5 min, the reader was paused to add the indicated concentrations of fluorescent ligand, before measurements were continued. To set non-specific binding for kinetic experiments, the indicated competing ligand was added 5 min before the addition of the fluorescent ligand.

[2] = target: FFA1-Nluc (Homo sapiens, UniProt O14842); assay: DISCo-BRET (endpoint, spectra scan, kinetics) with TUG-2591 and TUG-2597 at C terminal Nluc tagged FFA1; format: binding; design: expressed in transfected cells; conditions: for Specific BRET (540/450), % of control: Figure 4Bi, single replicate values (technical duplicate); for Specific BRET (690/540), % of control: technical duplicate
Protocol: Nluc-FFA1 or FFA1-Nluc Flp-In T-REx 293 cells were plated at 50,000 cells per well in poly-D-lysine coated white 96-well plates. Cells were cultured for 24 h in the plate before medium was replaced with medium containing 100 ng/mL of doxycycline to induce receptor expression. After culturing for a further 24 h, culture medium was removed, cells washed with HBSS and incubated in HBSS for 30 min. For all DISCo-BRET formats Nano-Glo substrate was then added at a 1:800 final dilution and cells incubated for 10 min. Following substrate addition experimental set up different among the three formats: endpoint, spectra scan, and kinetics.
For endpoint experiments all fluorescent and unlabelled ligands were added to the cells and incubated for 5 min at 37 °C. Luminescent emission was then measured using a CLARIOstar microplate reader with monochromator set at 450–60 nm (Nluc), 540−60 nm (NBD) and 690–100 nm (SulfoCy5). BRET ratios were then calculated as either SulfoCy5 emission divided by NBD emission, SulfoCy5 emission divided by Nluc emission, or NBD emission divided by Nluc emission.
For spectra scan experiments all indicated fluorescent and unlabelled ligands were added to the cells and cells incubated for 5 min at 37 °C. Luminescence emissions were then measured from each well of the plate from 440 nm – 740 nm with a 5 nm resolution using a CLARIOstar microplate. Luminescent emission spectra were then normalised as a percentage of the maximal Nluc emission peak ( ~ 460 nm), then subtracted with the spectrum obtained in the presence of high concentrations of ligands competing for both binding sites to obtain specific BRET binding spectra.
In kinetic DISCo-BRET experiments plates were placed directly in a CLARIOstar plate reader set to 25 °C 10 min after Nano-Glo substrate addition. Luminescent measurements were then taken with three sequential measurements per well with the monochromator set to 450–60 nm (Nluc), 540 - 60 nm (NBD) and 690–100 nm (SulfoCy5) taken in 20 or 30 s intervals. After 5 min of background measurements, the plate reader was paused for the first indicated fluorescent ligand(s) addition, before immediately returning the plate to the reader to continue luminescence readings. After 5 min, the reader was again paused to add the second fluorescent ligand (association assays) or competing ligand(s) (dissociation assays), before immediately continuing the measurements for the indicated time. Non-specific control binding was obtained by adding the indicated competing ligand(s) 5 min prior to the addition of the first fluorescent ligand.

T1 sequence (O14842 whole entry): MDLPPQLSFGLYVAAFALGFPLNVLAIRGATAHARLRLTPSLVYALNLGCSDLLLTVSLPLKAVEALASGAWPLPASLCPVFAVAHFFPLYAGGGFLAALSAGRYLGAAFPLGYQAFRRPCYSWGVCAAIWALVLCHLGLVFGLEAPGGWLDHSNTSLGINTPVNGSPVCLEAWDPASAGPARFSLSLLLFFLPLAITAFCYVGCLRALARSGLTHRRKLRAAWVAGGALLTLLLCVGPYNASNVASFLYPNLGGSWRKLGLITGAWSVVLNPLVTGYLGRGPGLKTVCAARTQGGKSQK
Sequence of FFA1-Nluc (O14842 whole entry): as above

For `Cc1cc(OCCCS(C)(=O)=O)cc(C)c1-c1cccc(COc2ccc3c(c2)OC[C@H]3CC(=O)O)c1` [TAK-875], the “Specific BRET (690/450)%” value ([1]; log[Ligand] -6) was 10.18% and 12.73% and 3.99% and 7.92% and 4.81% and 6.50%, the “Specific BRET (690/450)%” value ([1]; log[Ligand] -6.5) was 32.21% and 35.14% and 21.21% and 27.75% and 22.79% and 22.32% and the “Specific BRET (690/450)%” value ([1]; log[Ligand] -7) was 65.25% and 65.98% and 70.04% and 73.07% and 59.65% and 56.69%. The “Specific BRET (690/450)%” value ([1]; log[Ligand] -7.5) was 85.12% and 83.85% and 95.80% and 94.83% and 87.89% and 88.68%, the “Specific BRET (690/450)%” value ([1]; log[Ligand] -8) was 89.18% and 88.01% and 105.30% and 110.61% and 94.39% and 90.53% and the “Specific BRET (690/450)%” value ([1]; log[Ligand] -9) was 97.11% and 97.99% and 104.48% and 114.53% and 100.63% and 97.67%. For the same molecule, the “Specific BRET (690/450)%” value ([1]; log[Ligand] -10) was 87.86% and 92.46% and 110.54% and 109.16% and 102.75% and 97.62%, the “Specific BRET (690/450)%” value ([1]; log[Ligand] -11) was 100.29% and 99.71% and 99.72% and 100.28% and 98.52% and 101.48% and the “Specific BRET (540/450)%” value ([1]; log[Ligand] -9) was 172.87% and 190.47% and 142.88% and 120.34% and 106.26% and 112.65% and 111.64% and 106.85%. The “Specific BRET (540/450)%” value ([1]; log[Ligand] -10) was 149.59% and 142.25% and 115.93% and 128.15% and 104.61% and 106.65% and 101.74% and 108.27%, the “Specific BRET (540/450)%” value ([1]; log[Ligand] -11) was 103.21% and 96.79% and 95.91% and 104.09% and 99.52% and 100.48% and 105.48% and 94.52% and the “Specific BRET (540/450), % of control” value ([2]; log[Ligand] -6) was 467.51 % of control and 353.62 % of control and 390.67 % of control and 390.47 % of control and 245.96 % of control and 264.46 % of control and 322.48 % of control and 320.38 % of control. For the same molecule, the “Specific BRET (540/450), % of control” value ([2]; log[Ligand] -6.5) was 416.30 % of control and 439.27 % of control and 347.06 % of control and 353.35 % of control and 259.50 % of control and 260.52 % of control and 247.59 % of control and 261.94 % of control, the “Specific BRET (540/450), % of control” value ([2]; log[Ligand] -7) was 359.13 % of control and 319.17 % of control and 300.41 % of control and 327.99 % of control and 232.12 % of control and 230.66 % of control and 238.32 % of control (2×) and the “Specific BRET (540/450), % of control” value ([2]; log[Ligand] -7.5) was 230.54 % of control and 249.60 % of control and 216.23 % of control and 242.80 % of control and 172.25 % of control and 154.77 % of control and 142.78 % of control and 178.30 % of control. For the same molecule, the “Specific BRET (540/450), % of control” value ([2]; log[Ligand] -8) was 168.77 % of control and 177.73 % of control and 170.59 % of control and 182.76 % of control and 139.62 % of control and 128.26 % of control and 117.24 % of control and 129.48 % of control, the “Specific BRET (540/450), % of control” value ([2]; log[Ligand] -9) was 109.76 % of control and 130.42 % of control and 118.05 % of control and 144.22 % of control and 109.32 % of control and 101.46 % of control and 92.91 % of control and 104.81 % of control and the “Specific BRET (690/540), % of control” value ([2]; log[Ligand] -9) was 98.23 % of control. The “Specific BRET (540/450), % of control” value ([2]; log[Ligand] -10) was 110.45 % of control and 140.76 % of control and 99.39 % of control and 126.77 % of control and 105.68 % of control and 97.52 % of control and 91.86 % of control and 108.31 % of control, the “Specific BRET (690/540), % of control” value ([2]; log[ligand] -8) was 82.90 % of control and the “'bottom' of the IC50 curve, DISCo-BRET NBD/Nluc” value ([2]; percentage of binding obtained in the absence of competing ligand) was 360%. The “'bottom' of the IC50 curve, DISCo-BRET SulfoCy5/NBD” value ([2]; percentage of binding obtained in the absence of competing ligand, 100 nM TUG-2591 and […] TUG-2597) was -3.0%.
